Experimental data published in patent publication US8048892B2, “Azaquinolone based compounds exhibiting prolyl hydroxylase inhibitory activity, compositions, and uses thereof” (Amgen Inc., priority 2006, dated 2011).
pIC50: −log10 of the molar value. Counter-ions that a name gives are not always drawn.

target: HIF PHD2 (Homo sapiens, UniProt Q9GZT9); assay: PHD2 inhibition assay (TR-FRET, VCB-Eu detection of hydroxylated P564-HIF1α peptide); type: biochemical; settings: 2 nM PHD2, 100 nM P564-HIF1α peptide, 0.25 μM 2-oxoglutarate
Procedure, shortened: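 Human PHD2 (2 nM final) preincubated 1 h at room temperature with compound and 100 μM FeCl2 in pH 6 MES buffer, 5% DMSO final. Reaction with 100 nM biotinylated P564-HIF1α peptide, 2 mM ascorbate and 0.25 μM 2-oxoglutarate for 1 h, stopped with succinate. Hydroxylation read by TR-FRET (VCB-Eu/streptavidin-APC, 655/615 nm); IC50 from 4-parameter fit of percent of control.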

HIF PHD2, sequence (Q9GZT9 whole entry): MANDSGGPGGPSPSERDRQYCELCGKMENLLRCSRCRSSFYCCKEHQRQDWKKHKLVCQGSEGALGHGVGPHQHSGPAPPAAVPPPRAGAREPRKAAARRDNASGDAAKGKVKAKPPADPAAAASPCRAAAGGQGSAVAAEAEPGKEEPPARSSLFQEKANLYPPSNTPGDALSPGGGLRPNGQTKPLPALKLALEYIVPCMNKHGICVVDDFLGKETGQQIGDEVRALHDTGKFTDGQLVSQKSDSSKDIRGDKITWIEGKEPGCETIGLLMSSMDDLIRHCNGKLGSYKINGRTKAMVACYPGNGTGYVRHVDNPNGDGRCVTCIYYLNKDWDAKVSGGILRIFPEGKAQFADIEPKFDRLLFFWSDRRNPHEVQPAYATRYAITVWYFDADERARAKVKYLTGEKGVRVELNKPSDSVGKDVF

First: Cn1c(=O)c(C(=O)NCC(=O)O)c(O)c2cc(-c3cccc(N4CCOCC4)c3)cnc21 [Example 54]
Second: Cn1c(=O)c(C(=O)NCC(=O)O)c(O)c2cc(-c3ccc(N4CCOCC4)cc3)cnc21 [Example 63, N-((4-Hydroxy-1-methyl-6-(4-(4-morpholinyl)phenyl)-2-oxo-1,2-dihydro-1,8-naphthyridin-3-yl)carbonyl)glycine]
The pIC50 of the first is lower: 7.00 to 7.30 for the first, over 7.30 for the second.

First: Cn1c(=O)c(C(=O)NCC(=O)O)c(O)c2cc(-c3cccnc3)cnc21 [Example 44, 2-(4-Hydroxy-1-methyl-2-oxo-6-(pyridin-3-yl)-1,2-dihydro-1,8-naphthyridine-3-carboxamido)acetic acid]
Second: COc1ccc(-c2cnc3c(c2)c(O)c(C(=O)NCC(=O)O)c(=O)n3C)cn1 [Example 52, N-((4-Hydroxy-1-methyl-6-(6-(methyloxy)-3-pyridinyl)-2-oxo-1,2-dihydro-1,8-naphthyridin-3-yl)carbonyl)glycine]
The pIC50 of the first is higher: over 7.30 for the first, 6.30 to 7.00 for the second. The first is the more potent here.

`CC(C)c1cc2c(O)c(C(=O)NCC(=O)O)c(=O)n(C)c2cn1` [Example 113, N-((4-Hydroxy-1-methyl-6-(1-methylethyl)-2-oxo-1,2-dihydro-1,7-naphthyridin-3-yl)carbonyl)glycine] and `CC(C)C#Cc1cnc2c(O)c(C(=O)NCC(=O)O)c(=O)n(C)c2c1` [Example 9, 2-(4-Hydroxy-1-methyl-7-(3-methylbut-1-ynyl)-2-oxo-1,2-dihydro-1,5-naphthyridine-3-carboxamido)acetic acid] cannot be ordered by pIC50: over 7.30 for the first, over 7.30 for the second.

`Cn1c(=O)c(C(=O)NCC(=O)O)c(O)c2cc(C3CCCC3)c(C(F)(F)F)nc21` [Example 98, 2-(6-Cyclopentyl-4-hydroxy-1-methyl-2-oxo-7-(trifluoromethyl)-1,2-dihydro-1,8-naphthyridine-3-carboxamido)acetic acid] and `Cn1c(=O)c(C(=O)NCC(=O)O)c(O)c2cc(C3CCCCC3)c(C(F)(F)F)nc21` [Example 95, 2-(6-Cyclohexyl-4-hydroxy-1-methyl-2-oxo-7-(trifluoromethyl)-1,2-dihydro-1,8-naphthyridine-3-carboxamido)acetic acid] fall in the same range of pIC50: 6.30 to 7.00 for the first, 6.30 to 7.00 for the second.

First: Cn1c(=O)c(C(=O)NCC(=O)O)c(O)c2c(C(F)(F)F)nccc21 [Example 132, 2-(4-Hydroxy-1-methyl-2-oxo-5-(trifluoromethyl)-1,2-dihydro-1,6-naphthyridine-3-carboxamido)acetic acid, Trifluoroacetic acid salt]
Second: Cn1c(=O)c(C(=O)NCC(=O)O)c(O)c2c(Br)nccc21 [Example 130, 2-(5-Bromo-4-hydroxy-1-methyl-2-oxo-1,2-dihydro-1,6-naphthyridine-3-carboxamido)acetic acid, Trifluoroacetic acid salt]
The pIC50 of the first is lower: 7.00 to 7.30 for the first, over 7.30 for the second.

`Cn1c(=O)c(C(=O)NCC(=O)O)c(O)c2cc(C3CCCCO3)cnc21` (racemic) [Example 68, (R,S)-2-(4-Hydroxy-1-methyl-2-oxo-6-(tetrahydro-2 H-pyran-2-yl)-1,2-dihydro-1,8-naphthyridine-3-carboxamido)acetic acid] and `Cn1c(=O)c(C(=O)NCC(=O)O)c(O)c2cc(C3CCCO3)c(C(F)(F)F)nc21` (racemic) [Example 99, (R,S) 2-(4-Hydroxy-1-methyl-2-oxo-6-(tetrahydrofuran-2-yl)-7-(trifluoromethyl)-1,2-dihydro-1,8-naphthyridine-3-carboxamido)acetic acid] cannot be ordered by pIC50: over 7.30 for the first, over 7.30 for the second.

First: Cc1cc(C)nc(-c2cnc3c(c2)c(O)c(C(=O)NCC(=O)O)c(=O)n3C)n1 [Example 30, 2-(6-(4,6-Dimethylpyrimidin-2-yl)-4-hydroxy-1-methyl-2-oxo-1,2-dihydro-1,8-naphthyridine-3-carboxamido)acetic acid]
Second: COc1ccnc(-c2cnc3c(c2)c(O)c(C(=O)NCC(=O)O)c(=O)n3C)n1 [Example 29, 2-(4-Hydroxy-6-(4-methoxypyrimidin-2-yl)-1-methyl-2-oxo-1,2-dihydro-1,8-naphthyridine-3-carboxamido)acetic acid]
The pIC50 of the first is lower: 7.00 to 7.30 for the first, over 7.30 for the second.

`Cn1c(=O)c(C(=O)NCC(=O)O)c(O)c2cccnc21` [Example 76, 2-(4-Hydroxy-1-methyl-2-oxo-1,2-dihydro-1,8-naphthyridine-3-carboxamido)acetic acid] and `Cn1c(=O)c(C(=O)NCC(=O)O)c(O)c2ccnc(Cl)c21` [Example 126, 2-(8-Chloro-4-hydroxy-1-methyl-2-oxo-1,2-dihydro-1,7-naphthyridine-3-carboxamido)acetic acid] fall in the same range of pIC50: 7.00 to 7.30 for the first, 7.00 to 7.30 for the second.

First: Cc1ccccc1-c1cc2c(O)c(C(=O)NCC(=O)O)c(=O)n(C)c2cn1 [Example 106, N-((4-Hydroxy-1-methyl-6-(2-methylphenyl)-2-oxo-1,2-dihydro-1,7-naphthyridin-3-yl)carbonyl)glycine]
Second: Cc1ccccc1-c1cnc2c(c1)c(O)c(C(=O)NCC(=O)O)c(=O)n2C [Example 35, N-((4-Hydroxy-1-methyl-6-(2-methylphenyl)-2-oxo-1,2-dihydro-1,8-naphthyridin-3-yl)carbonyl)glycine]
The pIC50 of the first is higher: over 7.30 for the first, 7.00 to 7.30 for the second.

Compared with `Cn1c(=O)c(C(=O)NCC(=O)O)c(O)c2cc(-c3cccc(C(F)(F)F)n3)cnc21` [Example 32, N-((4-Hydroxy-1-methyl-2-oxo-6-(6-(trifluoromethyl)-2-pyridinyl)-1,2-dihydro-1,8-naphthyridin-3-yl)carbonyl)glycine], `Cc1nc(F)ccc1-c1cnc2c(c1)c(O)c(C(=O)NCC(=O)O)c(=O)n2C` [Example 47, 2-(6-(6-Fluoro-2-methylpyridin-3-yl)-4-hydroxy-1-methyl-2-oxo-1,2-dihydro-1,8-naphthyridine-3-carboxamido)acetic acid] is higher in pIC50: 7.00 to 7.30 for the first, over 7.30 for the second. The second is the more potent here.

First: CN(C)c1cccc(-c2cnc3c(c2)c(O)c(C(=O)NCC(=O)O)c(=O)n3C)c1 [Example 50, N-((6-(3-(Dimethylamino)phenyl)-4-hydroxy-1-methyl-2-oxo-1,2-dihydro-1,8-naphthyridin-3-yl)carbonyl)glycine]
Second: CN(C)c1ccc(-c2cnc3c(c2)c(O)c(C(=O)NCC(=O)O)c(=O)n3C)cc1 [Example 49, N-((6-(4-(Dimethylamino)phenyl)-4-hydroxy-1-methyl-2-oxo-1,2-dihydro-1,8-naphthyridin-3-yl)carbonyl)glycine]
The pIC50 of the first is higher: over 7.30 for the first, 6.30 to 7.00 for the second.

`Cn1c(=O)c(C(=O)NCC(=O)O)c(O)c2ncc(C#N)cc21` [Example 6, 2-(7-Cyano-4-hydroxy-1-methyl-2-oxo-1,2-dihydro-1,5-naphthyridine-3-carboxamido)acetic acid] and `Cn1c(=O)c(C(=O)NCC(=O)O)c(O)c2ncc(Br)cc21` [Example 1, N-((7-Bromo-4-hydroxy-1-methyl-2-oxo-1,2-dihydro-1,5-naphthyridin-3-yl)carbonyl)glycine] cannot be ordered by pIC50: over 7.30 for the first, over 7.30 for the second.

`Cn1c(=O)c(C(=O)NCC(=O)O)c(O)c2ccc(-c3cccs3)nc21` [Example 14, N-((4-Hydroxy-1-methyl-2-oxo-7-(2-thienyl)-1,2-dihydro-1,8-naphthyridin-3-yl)carbonyl)glycine] and `Cn1c(=O)c(C(=O)NCC(=O)O)c(O)c2ncc(-c3cccs3)cc21` [Example 2, 2-(4-Hydroxy-1-methyl-2-oxo-7-(thiophen-2-yl)-1,2-dihydro-1,5-naphthyridine-3-carboxamido)acetic acid] cannot be ordered by pIC50: over 7.30 for the first, over 7.30 for the second.

First: Cn1c(=O)c(C(=O)NCC(=O)O)c(O)c2cc(N3CCOCC3)ncc21 [Example 120, 2-(4-Hydroxy-1-methyl-6-morpholino-2-oxo-1,2-dihydro-1,7-naphthyridine-3-carboxamido)acetic acid, Trifluoroacetic acid salt]
Second: Cn1c(=O)c(C(=O)NCC(=O)O)c(O)c2ccc(N3CCOCC3)nc21 [Example 23, 2-(4-Hydroxy-1-methyl-7-morpholino-2-oxo-1,2-dihydro-1,8-naphthyridine-3-carboxamido)acetic acid]
The pIC50 of the first is higher: over 7.30 for the first, 6.30 to 7.00 for the second.

Compared with `CN(C)c1ccccc1-c1cnc2c(c1)c(O)c(C(=O)NCC(=O)O)c(=O)n2C` [Example 33, 2-(6-(2-(Dimethylamino)phenyl)-4-hydroxy-1-methyl-2-oxo-1,2-dihydro-1,8-naphthyridine-3-carboxamido)acetic acid], `CN(C)c1ccc(-c2cnc3c(c2)c(O)c(C(=O)NCC(=O)O)c(=O)n3C)cn1` [Example 62, N-((6-(6-(Dimethylamino)-3-pyridinyl)-4-hydroxy-1-methyl-2-oxo-1,2-dihydro-1,8-naphthyridin-3-yl)carbonyl)glycine] is higher in pIC50: 7.00 to 7.30 for the first, over 7.30 for the second. The second is the more potent here.

First: C[C@H](NC(=O)c1c(O)c2ccc(C(F)(F)F)nc2[nH]c1=O)C(=O)O [Example 88, (S)-2-(4-Hydroxy-2-oxo-7-(trifluoromethyl)-1,2-dihydro-1,8-naphthyridine-3-carboxamido)propanoic acid]
Second: Cn1c(=O)c(C(=O)NCC(=O)O)c(O)c2cc(C3CCCO3)c(C(F)(F)F)nc21 (single isomer, unassigned) [Example 102, (R)-2-(4-Hydroxy-1-methyl-2-oxo-6-(tetrahydrofuran-2-yl)-7-(trifluoromethyl)-1,2-dihydro-1,8-naphthyridine-3-carboxamido)acetic acid or (S)-2-(4-Hydroxy-1-methyl-2-oxo-6-(tetrahydrofuran-2-yl)-7-(trifluoromethyl)-1,2-dihydro-1,8-naphthyridine-3-carboxamido)acetic acid]
The pIC50 of the first is lower: 6.30 to 7.00 for the first, 7.00 to 7.30 for the second. The second is the more potent here.

Compared with `CCCc1cnc2c(c1)c(O)c(C(=O)NCC(=O)O)c(=O)n2C` [Example 83, 2-(4-Hydroxy-1-methyl-2-oxo-6-propyl-1,2-dihydro-1,8-naphthyridine-3-carboxamido)acetic acid], `Cn1c(=O)c(C(=O)NCC(=O)O)c(O)c2c(NCC(=O)O)nccc21` [Example 129, 2-{4-Hydroxy-1-methyl-2-oxo-3-[(carboxymethyl)carbamoyl]-1,2-dihydro-1,6-naphthyridin-5-ylamino}acetic acid, Trifluoroacetic acid salt] is higher in pIC50: 7.00 to 7.30 for the first, over 7.30 for the second.
